Patent publication US9757324B2, “Emu oil in combination with other active ingredients for treating skin imperfections” (priority 2011, dated 2017)

Assay: Histological examination of skin after topical application
Assay type: in vivo, volunteers
Experimental: A study conducted with Emu Oil and doxycycline was undertaken in volunteers with mild to moderate acne. Sixteen volunteers participated who had mild to moderate acne, and one had severe cystic acne. Within 48 hours of application of the combination, the acne had disappeared. Only the volunteer with severe cystic acne had to apply the combination for five days for the acne to resolve. The efficacy was 100%. […] There are no tropical formulations of doxycycline to compare with. On histological examination, doxycycline was found in the dermis within 15 minutes of topical application.

C[C@H]1c2cccc(O)c2C(=O)C2=C(O)[C@]3(O)C(=O)C(C(N)=O)=C(O)[C@@H](N(C)C)[C@@H]3[C@@H](O)[C@@H]21 [doxycycline]
time after which doxycycline was found in the dermis: ≤ 15 min
